Reference: patent publication USRE40387E1, “Pharmaceutical compositions, dosage forms and methods for oral administration of epothilones” (Bristol-Myers Squibb Company, priority 2001, dated 2008)

Tests used:
[1] = Pharmacokinetics of oral and IV Compound A in cancer patients; assay type: in vivo
Description: Patients with advanced malignancies were administered Compound A weekly as a 30-minute infusion (a course=3 intravenous weekly administrations). […] Serial plasma sampling was obtained on day 6 and day 1 of course 1 to assess pharmacokinetics by an LC/MS/MS. The LC/MS/MS assay was the same as used in Example 1.
Following oral administration on day 6, 7 mL blood samples was collected into Becton Dickinson Vacutainer tubes with K3EDTA as anticoagulent (lavender-colored top) according to the following schedule (expressed as hours:minutes from the start of the oral administration): predose, 00:15, 00:30, 00:45, 01:00, 01:30, 02:00, 03:00, 04:00, 06:00, 08:00, 24:00, 48:00, and 72:00. Following IV administration on day 1, 7 mL blood samples were collected into Becton Dickinson Vacutainer tubes with K3EDTA as anticoagulent (lavender-colored top) according to the following schedule (expressed as hours:minutes from the start of the IV infusion): predose, 00:15, 00:30 (end-of infusion), 00:45, 01:00, 01:30, 02:00, 03:00, 04:00, 06:00, 08:00, 24:00, 48:00, and 72:00.
Immediately after blood collection, the Vacutainer tubes were inverted several times to ensure mixing with the anticoagulant and then immediately placed on crushed ice. Within 30 minutes of collection, samples were centrifuged for 5 minutes at approximately 2000×g and 0 to 5 EC 5° C. The plasma was then transferred to separate pre-labeled screw-capped polypropylene tubes and stored at −70 EC −70° C. until bioanalysis. Plasma concentrations of Compound A were analyzed using the LC/MS/MS assay described in Example 1.
The plasma concentration versus time data were analyzed using non-compartmental methods. The pharmacokinetic parameters determined for Compound A included the maximum observed plasma concentration (Cmax), time to reach Cmax (Tmax), area under the plasma concentration time curve from time zero to the time of last sampling time T(AUC (0−T)).

[2] = Stability of liquid formulation in 80:20 propylene glycol:ethanol; assay type: physicochemical; settings: for can be stored for up to: 2.5 mg/mL to 12.5 mg/mL in 80:20 propylene glycol:ethanol
Description: The stability of compound (A) in 80:20 propylene glycol:ethanol was evaluated by reconstituting 25 mg Compound (A) with 80:20 propylene glycol:ethanol to provide a liquid oral dosage form at concentrations of 2.5 mg/mL to 12.5 mg/mL. The resulting liquid oral dosage form was then stored up to 20 hours at ambient temperature (20° C. to 25° C.) and room light and at refrigerated temperature (2° C. to 8° C.).
The change in total impurities was attributed to an increase of an oxazine impurity/degradant whose structure is depicted below: [drawing 10] Samples were analyzed using HPLC with a 75 mm×4.6 mm i.d., 3.5 :m particle sizeWaters Symmetry Shield RP8 column and with UV detection at 240 nm. 10 :L injection volumes were used, the column was maintained at ambient temperature and the flow rate was 1 mL/min. Analysis times were 1 hour and samples were eluted using gradient elution with a mobile phase of water (0.05% acetic acid) (mobil phase A) and a mobile phase of acetonitrile (0.05% acetic acid). The elution profile is described in the table below.

[3] = Excretion in bile duct cannulated rats; assay type: in vivo, Sprague Dawley rats; settings: intraarterial 10 mg/kg or oral 20 mg/kg, 9 h
Description: In another study, bile duct cannulated Sprague Dawley rats (n=2 per group) received a single intraterial (10 mg/kg) or oral (20 mg/kg) dose of Compound (A), and bile, urine, and plasma samples were collected over a period of 9 h after dose. There was negligible excretion of intact Compound (A) in the bile (C 1% of the dose). There was some detectable amount of Compound (A) in the urine, but actual concentrations were not quantified due to lack of stability data for Compound (A) in the urine. Several drug-related compounds in the urine and plasma were tentatively identified by LC/MS and included an isomer (M+0), and a hydrolysis product (M+18). In addition, a metabolite (M−2) was detected in the plasma.

CYP2C9 = CYP2C9 (Homo sapiens, UniProt P11712); test: Inhibition of recombinant human CYP2C9 (deethylation of 3-cyano-7-ethoxycoumarin); assay type: in vitro ADME; settings: recombinant human CYP isoform
CYP2C9, sequence (P11712 whole entry, canonical isoform): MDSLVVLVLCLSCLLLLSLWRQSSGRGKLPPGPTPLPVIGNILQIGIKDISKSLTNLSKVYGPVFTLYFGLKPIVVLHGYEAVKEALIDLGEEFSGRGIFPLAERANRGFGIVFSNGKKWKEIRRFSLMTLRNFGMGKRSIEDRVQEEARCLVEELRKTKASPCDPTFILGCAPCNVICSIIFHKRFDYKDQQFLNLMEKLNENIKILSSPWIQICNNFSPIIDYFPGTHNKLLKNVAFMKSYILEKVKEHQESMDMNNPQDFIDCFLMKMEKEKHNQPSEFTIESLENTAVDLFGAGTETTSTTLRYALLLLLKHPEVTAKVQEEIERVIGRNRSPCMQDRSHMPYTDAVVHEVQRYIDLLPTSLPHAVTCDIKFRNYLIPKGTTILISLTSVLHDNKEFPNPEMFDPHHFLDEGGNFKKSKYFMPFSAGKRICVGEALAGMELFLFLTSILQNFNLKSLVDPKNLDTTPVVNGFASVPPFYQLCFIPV
Description: The ability of Compound (A) to inhibit the major human cytochrome P450s (CYPs) responsible for the metabolism of drugs was evaluated in vitro using recombinant human CYP isoforms. IC50 values for inhibition of deethylation of 3-cyano-7-ethoxycoumarin (CYP1A2, CYP2C9, CYP2C19, and CYP2D6) and for inhibition of dealkylation of benzoyl-resorufin (CYP3A4) were determined.

CYP3A4 = molecular target: T1, CYP3A4 (Homo sapiens, UniProt P08684); test: Biotransformation of Compound (A) in human liver microsomes with specific CYP inhibitors; assay type: in vitro ADME
T1 construct: from tissue; host or cells: human liver microsomes
T1 sequence (P08684 whole entry): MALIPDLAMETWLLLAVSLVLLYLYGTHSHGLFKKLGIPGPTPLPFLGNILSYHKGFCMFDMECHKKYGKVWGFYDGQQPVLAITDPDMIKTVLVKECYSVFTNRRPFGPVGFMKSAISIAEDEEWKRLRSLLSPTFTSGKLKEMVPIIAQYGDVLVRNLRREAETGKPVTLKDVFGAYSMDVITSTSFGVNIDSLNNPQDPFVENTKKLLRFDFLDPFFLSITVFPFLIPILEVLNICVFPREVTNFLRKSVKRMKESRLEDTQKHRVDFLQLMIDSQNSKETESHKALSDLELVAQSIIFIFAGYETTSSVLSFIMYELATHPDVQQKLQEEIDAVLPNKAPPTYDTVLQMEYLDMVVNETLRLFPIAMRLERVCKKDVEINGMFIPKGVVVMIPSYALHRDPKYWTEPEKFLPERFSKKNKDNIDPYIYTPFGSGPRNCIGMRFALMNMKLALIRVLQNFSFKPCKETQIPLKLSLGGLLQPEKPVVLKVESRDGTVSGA

[4] = 20 mg/m^2, oral solution with buffer
[5] = 25 mg/m^2, oral solution with buffer
[6] = 305 mg/m^2 as printed, oral solution with buffer

SMILES: C/C(=C\c1csc(C)n1)[C@@H]1C[C@@H]2O[C@]2(C)CCC[C@H](C)[C@H](O)[C@@H](C)C(=O)C(C)(C)[C@@H](O)CC(=O)N1 (relative stereo) [Compound (A), [1S-[1R*,3R*(E),7R*,10S*,11R*,12R*,16S*]]-7,11-dihydroxy 8,8,10,12,16-pentamethyl-3-[1-methyl-2-(2-methyl-4-thiazolyl)ethenyl-4-aza-17-oxobicyclo[14.1.0]heptadecane-5,9-dione]
- AUC(0-T), mean ([1]; 20 mg/m^2, IV): 796 ng·h/mL
- TMAX, median ([1]; 20 mg/m^2, IV): 15 min
- CMAX, mean ([1]; 20 mg/m^2, IV, N 3): 251 ng/mL
- % F, mean [1, 4]: 43.5%
- AUC(0-T), mean [1, 4]: 404 ng·h/mL
- TMAX, median [1, 4]: 60 min
- CMAX, mean ([1]; 20 mg/m^2, oral solution with buffer, N 3): 142 ng/mL
- AUC(0-T), mean ([1]; 25 mg/m^2, IV): 848 ng·h/mL
- TMAX, median ([1]; 25 mg/m^2, IV): 30 min
- CMAX, mean ([1]; 25 mg/m^2, IV, N 11): 447 ng/mL
- % F, mean [1, 5]: 55.6%
- AUC(0-T), mean [1, 5]: 533 ng·h/mL
- TMAX, median [1, 5]: 30 min
- CMAX, mean ([1]; 25 mg/m^2, oral solution with buffer, N 11): 180 ng/mL
- AUC(0-T), mean ([1]; 305 mg/m^2 as printed, IV): 1155 ng·h/mL
- TMAX, median ([1]; 305 mg/m^2 as printed, IV): 30 min
- CMAX, mean ([1]; 305 mg/m^2 as printed, IV, N 4): 711 ng/mL
- % F, mean [1, 6]: 62.2%
- AUC(0-T), mean [1, 6]: 708 ng·h/mL
- TMAX, median [1, 6]: 30 min
- CMAX, mean ([1]; 305 mg/m^2 as printed, oral solution with buffer, N 4): 274 ng/mL
- can be stored for up to ([2]; ambient temperature): up to 6 hours
- can be stored for up to ([2]; refrigerated temperature): up to 20 hours
- total impurities/degradants and potency ([2]; ambient temperature (20° C. to 25° C.) and room light, 20 hours): increase in total impurities/degradants and a decrease in potency
- total impurities/degradants ([2]; refrigerated temperature (2° C. to 8° C.), 20 hours): slight increase in total impurities/degradants
- appearance of the liquid oral dosage form ([2]; up to 20 hours, either storage condition): No changes from initial
- excretion of intact Compound (A) in the bile [3]: < 1 % of the dose
- inhibition of CYP2C9 (CYP2C9): did not inhibit
- cytochrome P450 responsible for metabolism (CYP3A4): may be a substrate for CYP3A4
